Reference: patent publication US6639089B2, “Anticancer agents, perfumes or foods and drinks” (Soda Aromatic Co., Ltd., priority 2001, dated 2003)
Where two headings read alike, the source gives them in different places.

Legend:
[1] = test system: melanoma cell line B16BL6; assay: Cancer cell mobility test (cancer invasion inhibitory action), Boyden double chamber with Matrigel/fibronectin; type: cell-based; conditions: for Tumor Invasion (cell/mm^2) 5 μM / Tumor Invasion (cell/mm^2) 20 μM: administered to cells 18 hours in advance, B16BL6, counted after 3.5 hours; for activity at 20 µM: Mus musculus
Method: (§1) A Boyden double chamber was used, in which a porous film with 8 μm pores was placed, the upper surface of the porous film being coated with Matrigel as a reconstructed membrane, the lower surface of the porous film being coated with fibronectin as an extracellular matrix. In the upper compartment of the chamber, 200,000 cells of melanoma cell line B16BL6, a type of skin cancer, were inoculated, and after 3.5 hours, Diff Quick staining was performed and the number of invasive cancer cells invading the lower compartment was counted using a CCD camera/multibioscanner. The compounds of the present invention were administered to cancer cells for 18 hours in advance at amounts of 5 μM and 20 μM.

[2] = test system: human fibrosarcoma cell line HT1080; assay: as above; type: cell-based; conditions: for Tumor Invasion (cell/mm^2) 5 μM / Tumor Invasion (cell/mm^2) 10 μM: administered to cells 18 hours in advance, HT1080, counted after 3.5 hours; for Cell Invasion Rate at 10 μM (%): relative to no addition = 100%, lower value = higher inhibition
Method: as §1, with “of human fibrosarcoma” for “of melanoma”, “line HT1080” for “line B16BL6, a type of skin cancer,”, “and 10” for “and 20”

[3] = test system: B-16 melanoma cell line BL; assay: Cancer metastasis inhibitory action test (in vivo), lung metastasis after caudal vein injection of melanoma cells; conditions: lungs on day 14, mean of 6 mice
Method: Cancer cells of B-16 melanoma cell line BL were incubated in a 5% CO2 incubator using an MEM culture medium (containing 10% FBS), and the individual cells were dissociated with a 2.5% trypsin solution. The melanoma cells were injected into the caudal vein of BDF1 mice (SPF). The number of cells injected was 2×10^5/0.2 ml/mouse. As test compounds for cancer metastasis inhibitory action, 15-hydroxypentadecanoic acid, 15-pentadecanolide, and 5-cyclohexadecen-1-one were used, and as a positive control compound, Mitomycin Kyowa S (manufactured by Kyowa Hakko Kokyo Co., Ltd.) was used. The test compounds and the positive control compound were dissolved or suspended in olive oil and administered as shown in Table 5 below. (In the case of intravenous administration, micellisation was performed using Tween before administration.) The dosage of the test compounds was 100 mg/kg each time in the case of peritoneal administration, and 10 mg/kg each time in the case of intravenous administration. The dosage of Mitomycin Kyowa S as the positive control compound was 0.5 mg/kg each time by peritoneal administration.
From day 10 post-implant onward, metastatic cancer cells of mice in the satellite group were observed, and on day 14 when the size of the cells was believed to be suitable for evaluation, the mice were sacrificed and the lungs were enucleated. The number of metastatic cancer cells was then counted.

[4] = test system: Rat spontaneous mammary cancer cells (SST-2); assay: Cancer metastasis inhibitory action test (in vivo), lung metastasis of subcutaneously implanted SST-2; conditions: day 7 pre-implant to day 34 post-implant; for Average number of metastatic colonies formed: lung, after 35 days; for Lung weight / Subcutaneous tumor weight: sacrifice after 35 days
Method: Rat spontaneous mammary cancer cells (SST-2) (1×10^5 cells) were subcutaneously implanted in the backs of Wister male rats (5 rats for each group). After 35 days, the rats were sacrificed, and the lung weight and the number of colonies formed were measured to observe the extent of lung metastasis of the SST-2. With respect to the groups to which 5-cyclohexadecen-1-one as the compound of the present invention was administered, 20 mg/rat and 5 mg/rat were orally administered and subcutaneously injected, from day 7 pre-implant to day 34 post-implant, and the subcutaneous tumor weight, the lung weight, and the number of metastatic colonies formed were compared with those of the control group, to which no treatment was provided.

[5] = test system: adenocarcinoma 755 cell line; assay: Test for action of killing cancer (in vivo), subcutaneous tumor weight; set-up: species or system mice; conditions: subcutaneous injection daily at 10 mg/kg for 5 days; tumors excised day 10 post-implant; control group 9.0 g
Method: In the backs of 6-week-old mice (first filial hybrid of C57BL/6 and DBA/2), 10^6 cells of adenocarcinoma 755 cell line were subcutaneously implanted. After 24 hours, a solution in which each sample was suspended, at a concentration of 50 mg/ml, in a physiological saline solution of 0.25% surfactant Nikkol HCO-60 (manufactured by Nikko Chemicals Co., Ltd.; polyoxyethylene (40) hydrogenated castor oil), was subcutaneously injected into a group of 8 mice, daily at 10 mg/kg for 5 days. On day 10 post-implant of adenocarcinoma 755 cells, the mice were sacrificed and tumors were excised. The average weight (g) of the tumors was obtained. As a result, the average weight of the control group was 9.0 g, while the average weight of the group to which 5-cyclohexadecen-1-one had been administered was as small as 1.9 g. The significant action of killing cancer was thus confirmed.

[6] = test system: melanoma cell line B16BL6; conditions: comparison derivatives of L-ascorbic acid (JP-A-8-291075); cited from earlier work
[7] = B16-BL6, 20 μM, relative to no addition = 100%, lower value = higher inhibition, read-out: Cell Invasion Rate at 20 μM (%)
[8] = Peritoneal administration, 100 mg/kg each time
[9] = Subcutaneous injection 5 mg/rat
[10] = Subcutaneous injection 20 mg/rat
[11] = B16-BL6, read-out: Cell Invasion Rate at 20 μM (%)

11(12)-pentadecen-15-olide
Tumor Invasion (cell/mm^2) 5 μM [1]: 234 ± 17 cell/mm^2
Tumor Invasion (cell/mm^2) 20 μM ([1]; 20 μM): 146 ± 31 cell/mm^2
Cell Invasion Rate at 20 μM (%) ([1]; 20 μM, relative to no addition = 100%, lower value = higher inhibition): 29.0%

12-oxahexadecen-16-olide
Tumor Invasion (cell/mm^2) 5 μM [2]: 218 cell/mm^2
Tumor Invasion (cell/mm^2) 10 μM [2]: 109 cell/mm^2
Cell Invasion Rate at 10 μM (%) [2]: 20.8%

O=C1CCCC=CCCCCCCCCCC1 [5-cyclohexadecen-1-one]
Tumor Invasion (cell/mm^2) 5 μM [1]: 285 ± 36 cell/mm^2
Tumor Invasion (cell/mm^2) 20 μM ([1]; 20 μM): 143 ± 14 cell/mm^2
activity at 20 µM [1, 7]: 31.6%
Number of metastatic cells [3, 8]: 35.6
Average number of metastatic colonies formed ([4]; Oral administration 5 mg/rat): 28.4
Lung weight ([4]; Oral administration 5 mg/rat): 1.5 g
Subcutaneous tumor weight ([4]; Oral administration 5 mg/rat): 46.4 g
Average number of metastatic colonies formed ([4]; Oral administration 20 mg/rat): 17.5
Lung weight ([4]; Oral administration 20 mg/rat): 1.4 g
Subcutaneous tumor weight ([4]; Oral administration 20 mg/rat): 44.7 g
Average number of metastatic colonies formed [4, 9]: 15.7
Lung weight [4, 9]: 1.3 g
Subcutaneous tumor weight [4, 9]: 43.5 g
Average number of metastatic colonies formed [4, 10]: 10.9
Lung weight [4, 10]: 1.1 g
Subcutaneous tumor weight [4, 10]: 42.0 g
average weight of the tumors [5]: 1.9 g

CCCCCCCCCCCC1CCCC(=O)O1 (centres unmarked) [5-hexadecanolide]
Tumor Invasion (cell/mm^2) 5 μM [2]: 144 cell/mm^2
Tumor Invasion (cell/mm^2) 10 μM [2]: 111 cell/mm^2
Cell Invasion Rate at 10 μM (%) [2]: 27.5%

O=C1CCCCCCCC=CCCCCCCO1 [9-hexadecen-16-olide]
Tumor Invasion (cell/mm^2) 5 μM [1]: 257 ± 42 cell/mm^2
Tumor Invasion (cell/mm^2) 20 μM ([1]; 20 μM): 113 ± 19 cell/mm^2
activity at 20 µM [1, 7]: 22.5%

O=C1CCCCCCCCCCCO1 [12-dodecanolide]
Tumor Invasion (cell/mm^2) 5 μM [1]: 405 ± 38 cell/mm^2
Tumor Invasion (cell/mm^2) 20 μM ([1]; 20 μM): 461 ± 67 cell/mm^2
activity at 20 µM [1, 7]: 91.7%

O=C(O)CCCCCCCCCCCO [12-hydroxydodecanoic acid]
Tumor Invasion (cell/mm^2) 5 μM [1]: 324 ± 23 cell/mm^2
Tumor Invasion (cell/mm^2) 20 μM ([1]; 20 μM): 246 ± 30 cell/mm^2
activity at 20 µM [1, 11]: 48.9%

O=C(O)CCCCCCCCCCC(=O)CCCO [15-hydroxy-12-oxopentadecanoic acid]
Tumor Invasion (cell/mm^2) 5 μM [1]: 268 ± 34 cell/mm^2
Tumor Invasion (cell/mm^2) 20 μM ([1]; 20 μM): 119 ± 25 cell/mm^2
activity at 20 µM [1, 7]: 23.7%

O=C(O)CCCCCCCCCCCCCCO [15-hydroxypentadecanoic acid]
Tumor Invasion (cell/mm^2) 5 μM [1]: 289 ± 45 cell/mm^2
Tumor Invasion (cell/mm^2) 20 μM ([1]; 20 μM): 135 ± 11 cell/mm^2
activity at 20 µM [1, 7]: 26.8%
Number of metastatic cells [3, 8]: 78.0

O=C1CCCCCCCCCCCCCCO1 [15-pentadecanolide]
Tumor Invasion (cell/mm^2) 5 μM [1]: 386 ± 26 cell/mm^2
Tumor Invasion (cell/mm^2) 20 μM ([1]; 20 μM): 324 ± 27 cell/mm^2
activity at 20 µM [1, 7]: 64.4%
Number of metastatic cells ([3]; Intravenous administration, 10 mg/kg each time, 3 times on day of implantation): 52.2
Number of metastatic cells [3, 8]: 134.3

O=C1CCCCCCCCCCCCCCCO1 [16-hexadecanolide]
Tumor Invasion (cell/mm^2) 5 μM [1]: 370 ± 62 cell/mm^2
Tumor Invasion (cell/mm^2) 20 μM ([1]; 20 μM): 293 ± 43 cell/mm^2
activity at 20 µM [1, 7]: 58.3%

O=C(O)CCCCCCCCCCCC(=O)CCCO [16-hydroxy-13-oxohexadecanoic acid]
Tumor Invasion (cell/mm^2) 5 μM [2]: 214 cell/mm^2
Tumor Invasion (cell/mm^2) 10 μM [2]: 121 cell/mm^2
Cell Invasion Rate at 10 μM (%) [2]: 31.8%

O=C(O)CCCCCCCCCCCCCCCO [16-hydroxyhexadecanoic acid]
Tumor Invasion (cell/mm^2) 5 μM [1]: 301 ± 47 cell/mm^2
Tumor Invasion (cell/mm^2) 20 μM ([1]; 20 μM): 199 ± 32 cell/mm^2
activity at 20 µM [1, 11]: 39.6%

O=C1CCCCCCCCCCCCCC1 [Cyclopentadecanone]
Tumor Invasion (cell/mm^2) 5 μM [1]: 459 ± 39 cell/mm^2
Tumor Invasion (cell/mm^2) 20 μM ([1]; 20 μM): 491 ± 35 cell/mm^2
activity at 20 µM [1, 11]: 109%

O=C1CCCCCCCCCCCC(=O)OCCO1 [Ethylene tridecanedioate]
Tumor Invasion (cell/mm^2) 5 μM [2]: 226 cell/mm^2
Tumor Invasion (cell/mm^2) 10 μM [2]: 84 cell/mm^2
Cell Invasion Rate at 10 μM (%) [2]: 16.0%

O=C1O[C@H]([C@@H](O)CO)C(O)=C1OP(=O)(O)O [L-ascorbyl 2-phosphate]
concentration at which a 25% cancer cell invasion inhibition was obtained [6]: approximately 280 μM

CCCCCCCCCCCCCCCC(=O)OC[C@H](O)[C@H]1OC(=O)C(O)=C1O [L-ascorbyl 6-O-palmitate]
concentration at which a 25% cancer cell invasion inhibition was obtained [6]: approximately 110 μM

CNC(=O)[C@@H](NC(=O)[C@H](CC(C)C)[C@H](O)C(=O)NO)C(C)(C)C [Marimastat, reference compound]
Tumor Invasion (cell/mm^2) 5 μM [2]: 269 cell/mm^2
Tumor Invasion (cell/mm^2) 10 μM [2]: 172 cell/mm^2
Cell Invasion Rate at 10 μM (%) [2]: 42.6%

CO[C@@]12[C@H](COC(N)=O)C3=C(C(=O)C(C)=C(N)C3=O)N1C[C@@H]1N[C@@H]12 [Mitomycin, reference compound]
Number of metastatic cells ([3]; Peritoneal administration, 0.5 mg/kg each time, 3 times on day of implantation): 21.2

CCOC(=O)CCCCCCCCCC=CCCCO [ethyl-15-hydroxy-11(12)-pentadecenoate]
Tumor Invasion (cell/mm^2) 5 μM [2]: 129 cell/mm^2
Tumor Invasion (cell/mm^2) 10 μM [2]: 106 cell/mm^2
Cell Invasion Rate at 10 μM (%) [2]: 28.6%
